Reference: patent US9695155B2, “Herbicidal substituted pyrimidinyloxy benzene compounds” (E. I. DU PONT DE NEMOURS AND COMPANY, priority 2013, dated 2017)

How the values were obtained:
arrowleaf sida = assay: Test E postemergence; format: in vivo, Sida rhombifolia
Summary of the method: (§1)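 Test chemicals formulated in a non-phytotoxic solvent mixture containing a surfactant were applied preemergence to seeds in silt loam soil or postemergence to plants at the 1- to 4-leaf stage in potting mix. After 14 to 21 days in a greenhouse, injury was visually rated against controls on a 0-100 scale (0 = no effect, 100 = complete control).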

Italian ryegrass = assay: Test E postemergence; format: in vivo, Lolium multiflorum
Summary of the method: as §1

velvetleaf = assay: Test E preemergence; format: in vivo, Abutilon theophrasti; details: for Velvetleaf plant response rating: scale 0 to 100 (0 no effect, 100 complete control); for Plant response rating, Velvetleaf: scale 0 to 100, 0 no effect, 100 complete control
Summary of the method: as §1

hairy beggarticks = assay: Test E postemergence; format: in vivo, Bidens pilosa
Summary of the method: as §1

corn = assay: Test E postemergence; format: in vivo, Zea mays
Summary of the method: as §1

kochia = assay: Test E preemergence; format: in vivo, Kochia scoparia; details: for Kochia plant response rating: scale 0 to 100 (0 no effect, 100 complete control); for Plant response rating, Kochia: scale 0 to 100, 0 no effect, 100 complete control
Summary of the method: as §1

surinam grass = assay: Test E preemergence; format: in vivo, Brachiaria decumbens; details: for Surinam Grass plant response rating: scale 0 to 100 (0 no effect, 100 complete control); for Plant response rating, Surinam Grass: scale 0 to 100, 0 no effect, 100 complete control
Summary of the method: as §1

lambsquarters = assay: Test E preemergence; format: in vivo, Chenopodium album; details: for Lambsquarters plant response rating: scale 0 to 100 (0 no effect, 100 complete control); for Plant response rating, Lambsquarters: scale 0 to 100, 0 no effect, 100 complete control
Summary of the method: as §1

barnyardgrass [1] = assay: Test C flooded paddy test; format: in vivo, Echinochloa crus-galli; details: Flood, scale 0 to 100 (0 no effect, 100 complete control), 13 to 15 days
Summary of the method: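 In-water treatment: compound dosed into 3 cm flood over soil, water level unchanged throughout. Controls run alongside; visual assessment at day 13–15.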

giant foxtail = assay: Test E preemergence; format: in vivo, Setaria faberii; details: for Foxtail, Giant plant response rating: scale 0 to 100 (0 no effect, 100 complete control); for Plant response rating, Foxtail, Giant: scale 0 to 100, 0 no effect, 100 complete control
Summary of the method: as §1

barnyardgrass [2] = assay: Test E preemergence; format: in vivo, Echinochloa crus-galli; details: preemergence; for Barnyardgrass plant response rating: scale 0 to 100 (0 no effect, 100 complete control); for Plant response rating, Barnyardgrass: scale 0 to 100, 0 no effect, 100 complete control
Summary of the method: as §1

palmer pigweed = assay: Test E postemergence; format: in vivo, Amaranthus palmeri
Summary of the method: as §1

Brazilian crabgrass [3] = assay: Test E preemergence; format: in vivo, Digitaria horizontalis; details: for Crabgrass, Brazil plant response rating: scale 0 to 100 (0 no effect, 100 complete control); for Plant response rating, Crabgrass, Brazil: scale 0 to 100, 0 no effect, 100 complete control
Summary of the method: as §1

Brazilian crabgrass [4] = assay: Test E postemergence; format: in vivo, Digitaria horizontalis
Summary of the method: as §1

green foxtail = assay: Test E preemergence; format: in vivo, Setaria viridis; details: for Foxtail, Green plant response rating: scale 0 to 100 (0 no effect, 100 complete control); for Plant response rating, Foxtail, Green: scale 0 to 100, 0 no effect, 100 complete control
Summary of the method: as §1

fall panicum = assay: Test E preemergence; format: in vivo, Panicum dichotomiflorum; details: for Panicum, Fall plant response rating: scale 0 to 100 (0 no effect, 100 complete control); for Plant response rating, Panicum, Fall: scale 0 to 100, 0 no effect, 100 complete control
Summary of the method: as §1

morningglory = assay: Test E preemergence; format: in vivo, Ipomoea coccinea; details: for Morningglory plant response rating: scale 0 to 100 (0 no effect, 100 complete control); for Plant response rating, Morningglory: scale 0 to 100, 0 no effect, 100 complete control
Summary of the method: as §1

nightshade = assay: Test E preemergence; format: in vivo, Solanum ptycanthum; details: for Nightshade plant response rating: scale 0 to 100 (0 no effect, 100 complete control); for Plant response rating, Nightshade: scale 0 to 100, 0 no effect, 100 complete control
Summary of the method: as §1

[5] = Postemergence, 31 g ai/ha, scale 0 to 100
[6] = Postemergence, 62 g ai/ha, scale 0 to 100
[7] = Postemergence, 125 g ai/ha, scale 0 to 100
[8] = Postemergence, 250 g ai/ha, scale 0 to 100
[9] = postemergence, 16 g ai/ha, scale 0 to 100, 0 no effect, 100 complete control

N#Cc1cnn(-c2c(C#N)cccc2Oc2ncc(Cl)cn2)c1 [Compound 200]
Plant response rating, Arrowleaf Sida (arrowleaf sida; [5]): 80
Plant response rating, Arrowleaf Sida (arrowleaf sida; [6]): 80
Plant response rating, Arrowleaf Sida (arrowleaf sida; [7]): 90
Plant response rating, Arrowleaf Sida (arrowleaf sida; [8]): 98
Plant response rating, Arrowleaf Sida (arrowleaf sida; [9]): 60
Plant response rating, Ryegrass, Italian (Italian ryegrass; [5]): 0
Plant response rating, Ryegrass, Italian (Italian ryegrass; [6]): 0
Plant response rating, Ryegrass, Italian (Italian ryegrass; [7]): 0
Plant response rating, Ryegrass, Italian (Italian ryegrass; [8]): 0
Plant response rating, Ryegrass, Italian (Italian ryegrass; [9]): 0
Velvetleaf plant response rating (velvetleaf; 31 g ai/ha): 35
Velvetleaf plant response rating (velvetleaf; 62 g ai/ha): 80
Plant response rating, Velvetleaf (velvetleaf; 125 g ai/ha): 100
Plant response rating, Velvetleaf (velvetleaf; 250 g ai/ha): 100
Plant response rating, Beggarticks (hairy beggarticks; [5]): 60
Plant response rating, Beggarticks (hairy beggarticks; [6]): 70
Plant response rating, Beggarticks (hairy beggarticks; [7]): 90
Plant response rating, Beggarticks (hairy beggarticks; [8]): 95
Plant response rating, Beggarticks (hairy beggarticks; [9]): 50
Plant response rating, Corn (corn; [5]): 10
Plant response rating, Corn (corn; [6]): 15
Plant response rating, Corn (corn; [7]): 20
Plant response rating, Corn (corn; [8]): 25
Plant response rating, Corn (corn; [9]): 10
Kochia plant response rating (kochia; 31 g ai/ha): 60
Kochia plant response rating (kochia; 62 g ai/ha): 95
Plant response rating, Kochia (kochia; 125 g ai/ha): 100
Plant response rating, Kochia (kochia; 250 g ai/ha): 100
Surinam Grass plant response rating (surinam grass; 31 g ai/ha): 5
Surinam Grass plant response rating (surinam grass; 62 g ai/ha): 70
Plant response rating, Surinam Grass (surinam grass; 125 g ai/ha): 100
Plant response rating, Surinam Grass (surinam grass; 250 g ai/ha): 100
Lambsquarters plant response rating (lambsquarters; 31 g ai/ha): 65
Lambsquarters plant response rating (lambsquarters; 62 g ai/ha): 80
Plant response rating, Lambsquarters (lambsquarters; 125 g ai/ha): 98
Plant response rating, Lambsquarters (lambsquarters; 250 g ai/ha): 100
Plant response rating, Barnyardgrass (barnyardgrass [1]; 31 g ai/ha): 0
Plant response rating, Barnyardgrass (barnyardgrass [1]; 62 g ai/ha): 0
Plant response rating, Barnyardgrass (barnyardgrass [1]; 125 g ai/ha): 0
Plant response rating, Barnyardgrass (barnyardgrass [1]; 250 g ai/ha): 25
Foxtail, Giant plant response rating (giant foxtail; 16 g ai/ha): 0
Foxtail, Giant plant response rating (giant foxtail; 31 g ai/ha): 0
Foxtail, Giant plant response rating (giant foxtail; 62 g ai/ha): 0
Plant response rating, Foxtail, Giant (giant foxtail; 125 g ai/ha): 25
Plant response rating, Foxtail, Giant (giant foxtail; 250 g ai/ha): 70
Barnyardgrass plant response rating (barnyardgrass [2]; 16 g ai/ha): 0
Barnyardgrass plant response rating (barnyardgrass [2]; 31 g ai/ha): 0
Barnyardgrass plant response rating (barnyardgrass [2]; 62 g ai/ha): 10
Plant response rating, Barnyardgrass (barnyardgrass [2]; 125 g ai/ha): 60
Plant response rating, Barnyardgrass (barnyardgrass [2]; 250 g ai/ha): 95
Plant response rating, Pigweed, Palmer (palmer pigweed; [5]): 70
Plant response rating, Pigweed, Palmer (palmer pigweed; [6]): 75
Plant response rating, Pigweed, Palmer (palmer pigweed; [7]): 98
Plant response rating, Pigweed, Palmer (palmer pigweed; [8]): 100
Plant response rating, Pigweed, Palmer (palmer pigweed; [9]): 40
Crabgrass, Brazil plant response rating (Brazilian crabgrass [3]; 16 g ai/ha): 30
Crabgrass, Brazil plant response rating (Brazilian crabgrass [3]; 31 g ai/ha): 85
Crabgrass, Brazil plant response rating (Brazilian crabgrass [3]; 62 g ai/ha): 100
Plant response rating, Crabgrass, Brazil (Brazilian crabgrass [3]; 125 g ai/ha): 100
Plant response rating, Crabgrass, Brazil (Brazilian crabgrass [3]; 250 g ai/ha): 100
Plant response rating, Crabgrass, Brazil (Brazilian crabgrass [4]; [5]): 15
Plant response rating, Crabgrass, Brazil (Brazilian crabgrass [4]; [6]): 30
Plant response rating, Crabgrass, Brazil (Brazilian crabgrass [4]; [7]): 50
Plant response rating, Crabgrass, Brazil (Brazilian crabgrass [4]; [8]): 60
Plant response rating, Crabgrass, Brazil (Brazilian crabgrass [4]; [9]): 10
Foxtail, Green plant response rating (green foxtail; 16 g ai/ha): 0
Foxtail, Green plant response rating (green foxtail; 31 g ai/ha): 5
Foxtail, Green plant response rating (green foxtail; 62 g ai/ha): 30
Plant response rating, Foxtail, Green (green foxtail; 125 g ai/ha): 75
Plant response rating, Foxtail, Green (green foxtail; 250 g ai/ha): 100
Panicum, Fall plant response rating (fall panicum; 31 g ai/ha): 75
Panicum, Fall plant response rating (fall panicum; 62 g ai/ha): 95
Plant response rating, Panicum, Fall (fall panicum; 125 g ai/ha): 100
Plant response rating, Panicum, Fall (fall panicum; 250 g ai/ha): 100
Morningglory plant response rating (morningglory; 31 g ai/ha): 20
Morningglory plant response rating (morningglory; 62 g ai/ha): 50
Plant response rating, Morningglory (morningglory; 125 g ai/ha): 90
Plant response rating, Morningglory (morningglory; 250 g ai/ha): 98
Nightshade plant response rating (nightshade; 31 g ai/ha): 10
Nightshade plant response rating (nightshade; 62 g ai/ha): 85
Plant response rating, Nightshade (nightshade; 125 g ai/ha): 100
Plant response rating, Nightshade (nightshade; 250 g ai/ha): 100
